Measurements reported in ChEMBL document CHEMBL5625174, “Are inhibitors of histone deacetylase 8 (HDAC8) effective in hematological cancers especially acute myeloid leukemia (AML) and acute lymphoblastic leukemia (ALL)?” (Eur J Med Chem, 2023).

Columns and labels:
U-937 = assay: Cytotoxicity against human U-937 cells assessed as reduction in cell viability; format: functional, cell-based
Jurkat E6.1 = assay: Cytotoxicity against human Jurkat E6.1 cells assessed as reduction in cell viability; format: functional, cell-based
MOLT-4 = assay: Cytotoxicity against human MOLT-4 cells assessed as reduction in cell viability; format: functional, cell-based
Histone deacetylase 8 = biological target: T1, Histone deacetylase 8 (Homo sapiens, UniProt Q9BY41); assay: Inhibition of HDAC8 (unknown origin) by fluorescence based assay
T1 sequence (Q9BY41 whole entry): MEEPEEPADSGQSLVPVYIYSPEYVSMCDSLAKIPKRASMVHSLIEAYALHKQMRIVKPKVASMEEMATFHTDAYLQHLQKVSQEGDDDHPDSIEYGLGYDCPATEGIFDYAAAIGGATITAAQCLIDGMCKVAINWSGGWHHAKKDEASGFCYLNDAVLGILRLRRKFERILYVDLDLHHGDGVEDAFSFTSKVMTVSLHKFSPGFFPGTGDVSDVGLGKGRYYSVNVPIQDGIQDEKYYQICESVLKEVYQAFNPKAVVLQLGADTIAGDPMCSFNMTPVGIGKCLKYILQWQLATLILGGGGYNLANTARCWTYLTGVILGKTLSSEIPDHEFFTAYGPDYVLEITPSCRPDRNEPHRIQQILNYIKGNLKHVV

Histone deacetylase = assay: Inhibition of HDAC (unknown origin) using Fluoro-Substrate Peptide as substrate by fluorescence assay; format: protein assay, Homo sapiens

Row | IC50 (Histone deacetylase 8) [µM] | IC50 (Histone deacetylase) [µM] | Compound | IC50 (U-937) [µM] | IC50 (Jurkat E6.1) [µM] | IC50 (MOLT-4) [µM]
1 |  |  | CC(C)CNC(=O)[C@H](CCC(=O)O)NC(=O)Cc1ccccc1 | > 35 | > 35 | > 35
2 | ≤ 10 | > 10 | CCCCCCNC(=O)[C@H](CCC(=O)O)NC(=O)Cc1ccc(Cl)cc1 | ≤ 35 | ≤ 35 | ≤ 35
3 |  |  | CCCCCNC(=O)[C@H](CCC(=O)O)NC(=O)Cc1ccc(Br)cc1 | > 35 | ≤ 35 | ≤ 35
4 | > 10 | > 10 | CCCCCCNC(=O)[C@H](CCC(=O)O)NC(=O)Cc1ccc(-c2ccccc2)cc1 |  |  | 
5 |  |  | CC(C)NC(=O)[C@H](CCC(=O)O)NC(=O)Cc1ccc(Cl)cc1 | ≤ 35 | ≤ 35 | ≤ 35
6 |  |  | CCCCCCNC(=O)[C@H](CCC(=O)O)NC(=O)Cc1ccc2ccccc2c1 | > 35 | ≤ 35 | ≤ 35
7 |  |  | CC(C)CNC(=O)[C@H](CCC(=O)O)NC(=O)Cc1ccc(-c2ccccc2)cc1 | > 35 | > 35 | > 35
8 |  |  | CC(C)CNC(=O)[C@H](CCC(=O)O)NC(=O)Cc1ccccc1Br | > 35 | < 35 | < 35
9 |  |  | CCCCCCNC(=O)[C@H](CCC(=O)O)NC(=O)Cc1ccccc1F | > 35 | < 35 | < 35
10 |  |  | CCCCCCNC(=O)[C@H](CCC(=O)O)NC(=O)Cc1ccccc1Br | < 35 | < 35 | < 35
11 |  |  | CC(C)CNC(=O)[C@H](CCC(=O)O)NC(=O)Cc1ccccc1Cl | > 35 | ≤ 35 | ≤ 35
12 |  |  | CC(C)(C)NC(=O)[C@H](CCC(=O)O)NC(=O)Cc1ccccc1 | ≤ 35 | ≤ 35 | ≤ 35
13 |  |  | O=C(O)CC[C@H](NC(=O)Cc1ccc(Br)cc1)C(=O)NC1CCCCC1 | > 35 | ≤ 35 | ≤ 35
14 |  |  | CCCCNC(=O)[C@H](CCC(=O)O)NC(=O)Cc1ccc(Br)cc1 | > 35 | ≤ 35 | ≤ 35
15 |  |  | O=C(O)CC[C@H](NC(=O)Cc1ccccc1Cl)C(=O)NCc1ccccc1 | > 35 | ≤ 35 | ≤ 35
16 |  |  | CC(C)NC(=O)[C@H](CCC(=O)O)NC(=O)Cc1ccccc1Br | > 35 | > 35 | > 35

Row | IC50 (Histone deacetylase 8) [µM] | IC50 (Histone deacetylase) [µM] | Compound | IC50 (U-937) [µM] | IC50 (Jurkat E6.1) [µM] | IC50 (MOLT-4) [µM]
17 |  |  | CC(C)NC(=O)[C@H](CCC(=O)O)NC(=O)Cc1ccc(-c2ccccc2)cc1 | > 35 | < 35 | > 35
18 | ≤ 10 | > 10 | O=C(O)CC[C@H](NC(=O)Cc1ccc(Cl)cc1Cl)C(=O)NCc1ccccc1 | ≤ 35 | ≤ 35 | ≤ 35
19 |  |  | CCCCNC(=O)[C@H](CCC(=O)O)NC(=O)Cc1ccc(Cl)cc1Cl | > 35 | < 35 | < 35
20 |  |  | CCCNC(=O)[C@H](CCC(=O)O)NC(=O)Cc1ccccc1F | > 35 | > 35 | > 35
21 |  |  | COc1ccc(CC(=O)N[C@@H](CCC(=O)O)C(=O)NCC(C)C)cc1 | > 35 | > 35 | > 35
22 |  |  | CC(C)CNC(=O)[C@H](CCC(=O)O)NC(=O)Cc1ccc(Br)cc1 | > 35 | > 35 | > 35
23 |  |  | CCCCNC(=O)[C@H](CCC(=O)O)NC(=O)Cc1ccccc1 | > 35 | > 35 | ≤ 35
24 |  |  | O=C(O)CC[C@H](NC(=O)Cc1ccccc1)C(=O)Nc1ccccc1 | ≤ 35 | ≤ 35 | ≤ 35
25 |  |  | CCCCCNC(=O)[C@H](CCC(=O)O)NC(=O)Cc1ccc([N+](=O)[O-])cc1 | > 35 | < 35 | < 35
26 |  |  | CC(C)NC(=O)[C@H](CCC(=O)O)NC(=O)Cc1ccccc1 | > 35 | ≤ 35 | ≤ 35
27 |  |  | O=C(O)CC[C@H](NC(=O)Cc1ccccc1Br)C(=O)Nc1ccccc1 | > 35 | > 35 | < 35
28 |  |  | CCCCCNC(=O)[C@H](CCC(=O)O)NC(=O)Cc1ccccc1Cl | > 35 | ≤ 35 | > 35
29 |  |  | CCCCCCNC(=O)[C@H](CCC(=O)O)NC(=O)Cc1ccccc1Cl | > 35 | > 35 | > 35
30 |  |  | O=C(O)CC[C@H](NC(=O)Cc1ccc(-c2ccccc2)cc1)C(=O)NC1CCCCC1 | > 35 | < 35 | < 35
31 |  |  | CCCCNC(=O)[C@H](CCC(=O)O)NC(=O)Cc1ccccc1F | > 35 | < 35 | > 35
